Data published in EP4620949A1, “ACKR3 MODULATORS FOR CARDIOVASCULAR OR ANTIPLATELET THERAPY” (Eberhard Karls Universität Tübingen (Medizinische Fakultät), priority 2024, dated 2025).
“And” between values parts separate entries of the source, which are not always exact repeats. Equal values may be shown once.

Columns and labels:
platelets = assay: Flow cytometry assay of platelet degranulation (P-Selectin surface expression in PRP); format: cell-based, human; settings: for P-Selectin expression reduction: PRP pre-incubated with compound (100 µM), then CRP-XL (1 µg/mL), % ±SEM normalized to CRP-XL-treated vehicle PRP
Protocol: Platelet Degranulation Studies of Derivatives. Concurrent with the β-Arrestin recruitment potency optimization, the compounds were also tested and developed according to their functional activity. To determine the ability of a compound to modulate platelets, P-Selectin surface expression was measured. P-Selectin is a surface protein involved in cell adhesion mechanisms and can be found on activated platelets. After induction of platelet aggregation in platelet-rich plasma (PRP), treatment with the respective compound should therefore lead to a significant reduction in P-Selectin expression. […]. […]. Similarly, platelet degranulation potency was highly sensitive toward "linker"-changes (Structure C, Table 1). A distinct trend could not be registered. […]. Flow Cytometry Assay. The inhibition of platelet degranulation was determined via flow cytometry experiments. Platelets were treated with collagen-related peptide (CRP-XL, CambCol Laboratories, Cambridge, UK) and the platelets' activation state was determined (Geue, S.; Aurbach, K.; Manke, M.-C.; Manukjan, G.; Münzer, P.; Stegner, D.; Brähler, C.; Walker-Allgaier, B.; Märklin, M.; Borst, C. E.; Quintanilla-Fend, L.; Rath, D.; Geisler, T.; Salih, H. R.; Seizer, P.; Lang, F.; Nieswandt, B.; Gawaz, M.; Schulze, H.; Pleines, I.; Borst, O. Pivotal role of pdk1 in megakaryocyte cytoskeletal dynamics and polarization during platelet biogenesis. Blood 2019, 134, 1847-1858; and Malehmir, M.; Pfister, D.; Gallage, S.; Szydlowska, M.; Inverso, D.; Kotsiliti, E.; Leone, V.; Peiseler, M.; Surewaard, B. G. J.; Rath, D.; Ali, A.; Wolf, M. J.; Drescher, H.; Healy, M. E.; Dauch, D.; Kroy, D.; Krenkel, O.; Kohlhepp, M.; Engleitner, T.; Olkus, A.; Sijmonsma, T.; Volz, J.; Deppermann, C.; Stegner, D.; Helbling, P.; Nombela-Arrieta, C.; Rafiei, A.; Hinterleitner, M.; Rail, M.; Baku, F.; Borst, O.; Wilson, C. L.; Leslie, J.; O'Connor, T.; Wes-ton, C. J.; Chauhan, A.; Adams, D. H.; Sheriff, L.; Teijeiro, A.; Prinz, M.; Bogeska, R.; An-stee, N.; Bongers, M. N.; Notohamiprodjo, M.; Geisler, T.; Withers, D. J.; Ware, J.; Mann, D. A.; Augustin, H. G.; Vegiopoulos, A.; Milsom, M. D.; Rose, A. J.; Lalor, P. F.; Llovet, J. M.; Pinyol, R.; Tacke, F.; Rad, R.; Matter, M.; Djouder, N.; Kubes, P.; Knolle, P. A.; Unger, K.; Zender, L.; Nieswandt, B.; Gawaz, M.; Weber, A.; Heikenwalder, M. Platelet gpibα is a mediator and potential interventional target for nash and subsequent liver cancer. Nat. Med. 2019, 25, 641-655). Briefly, PRP was isolated from peripheral human blood collected in citrate-phosphate-dextrose solution with adenine (CPDA) and diluted with phosphate-buffered saline (PBS) (Sigma Aldrich Co., Ltd., St. Luis, Missouri, USA) supplemented with CaCl2 and MgCl2. PRP (106 platelets /sample) was preincubated with the respective compound (100 µM) for 15 min. Samples were treated with 1 µg/ml CRP-XL (CambCol Laboratories, Cambridge, UK) for 30 min at room temperature in the presence of the respective fluorochrome-conjugated antibody against P-Selectin (CD62P-FITC; Beckman Coulter, Brea, CA, USA). Subsequently, samples were fixed in 0.5% paraformaldehyde and analyzed on a FACS-Calibur flow cytometer (FACS-Caliber flow cytometer, Becton-Dickinson, East Rutherford, NJ, USA). Mean fluorescence intensity (MFI) was used as a quantitative measurement of platelet surface expression.

human ACKR3 = target: T1, human ACKR3 (Homo sapiens, UniProt P25106); assay: ACKR3 β-Arrestin recruitment assay (NanoLuc complementation, NanoBiT) in HEK293T cells; format: cell-based; settings: for Efficacy (Emax) vs CXCL12: efficacy of CXCL12 at 300 nM set as 100%, average of three independent experiments
T1 construct: expressed in transfected cells; host or cells: HEK293T
T1 sequence (P25106 whole entry): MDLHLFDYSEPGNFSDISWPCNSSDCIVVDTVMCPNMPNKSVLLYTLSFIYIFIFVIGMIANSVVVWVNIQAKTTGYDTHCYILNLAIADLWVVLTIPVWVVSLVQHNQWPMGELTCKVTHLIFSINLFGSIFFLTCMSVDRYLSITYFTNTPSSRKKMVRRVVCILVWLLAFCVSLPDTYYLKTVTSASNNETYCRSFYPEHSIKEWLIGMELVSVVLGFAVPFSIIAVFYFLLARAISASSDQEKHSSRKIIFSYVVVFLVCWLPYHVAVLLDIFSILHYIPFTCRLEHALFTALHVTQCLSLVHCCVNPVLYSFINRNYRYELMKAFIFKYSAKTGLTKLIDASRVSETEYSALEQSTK
T1 sequence (P49407 whole entry partner): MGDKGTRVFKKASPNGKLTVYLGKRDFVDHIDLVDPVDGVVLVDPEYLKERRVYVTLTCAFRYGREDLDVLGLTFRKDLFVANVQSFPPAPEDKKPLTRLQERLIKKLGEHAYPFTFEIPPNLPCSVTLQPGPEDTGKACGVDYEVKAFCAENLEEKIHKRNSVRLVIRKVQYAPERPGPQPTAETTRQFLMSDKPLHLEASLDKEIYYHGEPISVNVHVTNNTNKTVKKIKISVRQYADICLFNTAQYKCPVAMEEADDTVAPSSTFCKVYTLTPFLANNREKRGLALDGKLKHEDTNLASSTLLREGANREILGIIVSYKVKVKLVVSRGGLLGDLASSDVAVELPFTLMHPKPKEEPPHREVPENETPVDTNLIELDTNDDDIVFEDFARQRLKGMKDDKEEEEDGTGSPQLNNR
Protocol: ACKR3 β-Arrestin Recruitment Assay. […] T.; Encell, L. P.; Wood, K. V. Nanoluc complementation reporter optimized for accurate measurement of protein interactions in cells. […] B.; Reynders, N.; Vanderplasschen, A.; Ollert, M.; Bouvier, M.; Szpakowska, M.; Chevigné, A. Proadrenomedullin n-terminal 20 peptides (pamps) are agonists of the chemokine scavenger receptor ACKR3/CXCR7. […] The prepared cells were then treated with compounds at concentrations ranging from 0.3 nM to 100 µM. Induction of β-Arrestin recruitment to receptors was evaluated by measuring bioluminescence with a Mithras LB940 luminometer (Berthold Technologies).
All curves were fitted to data points generated from the mean of at least three independent experiments. Results with values of p < 0.05 were considered statistically significant.

[1] = ACKR3, HEK293T cells, average value of three independent experiments

SMILES	P-Selectin expression reduction (platelets)	EC50 (human ACKR3; [1]) [nM]	other results
CCN(CCCNC(=O)c1ccc(-c2cccc(F)c2)s1)Cc1ccc(F)cc1 [Compound 32, N-(3-(ethyl(4-fluorobenzyl)amino)propyl)-5-(3-fluorophenyl)thiophene-2-carboxamide]	96±1%	–	–
CN(CCCNC(=O)c1ccc(-c2ccccc2)s1)Cc1ccccc1F [Compound 21, N-(3-((2-fluorobenzyl)(methyl)amino)propyl)-5-phenylthiophene-2-carboxamide]	40% and 40±10%	–	–
CN(CCCNC(=O)c1ccc(-c2ccccc2)s1)Cc1ccccc1 [Compound 1, N-(3-(benzyl(methyl)amino)propyl)-5-phenylthiophene-2-carboxamide]	71% and 74±9%	–	–
O=C(NCCCN(CCCO)Cc1ccccc1)c1ccc(-c2ccccc2)s1 [Compound 28, N-(3-(benzyl(3-hydroxypropyl)amino)propyl)-5-phenylthiophene-2-carboxamide]	85±4%	413	–
CN(CCCNC(=O)c1ccc(-c2ccc(F)cc2)s1)Cc1ccccc1 [Compound 14, N-(3-(benzyl(methyl)amino)propyl)-5-(4-fluorophenyl)thiophene-2-carboxamide]	87±7%	–	–
CN(CCCNC(=O)c1ccc(-c2ccccc2F)s1)Cc1ccccc1 [Compound 15, N-(3-(benzyl(methyl)amino)propyl)-5-(2-fluorophenyl)thiophene-2-carboxamide]	71±11%	–	–
O=C(NCC1CCCN(Cc2ccccc2)C1)c1ccc(-c2ccccc2)s1 (stereo not drawn) [Compound 39, N-((1-benzylpiperidin-3-yl)methyl)-5-phenylthiophene-2-carboxamide]	42±9%	1220	–
CN(CCCNC(=O)c1cc2ccccc2o1)Cc1ccccc1 [Compound 5, N-(3-(benzyl(methyl)amino)propyl)benzofuran-2-carboxamide]	35%	–	functional activity (in words) (platelets; P-Selectin flow cytometry, "head"-scaffold compounds): inactive
CN(CCCNC(=O)c1ccc(-c2cc(F)cc(F)c2)s1)Cc1ccccc1 [Compound 17, N-(3-(benzyl(methyl)amino)propyl)-5-(3,5-difluorophenyl)thiophene-2-carboxamide]	81±9%	–	–
O=C(c1ccc(-c2ccccc2)s1)N1CCCN(Cc2ccccc2)CC1 [Compound 40, (4-benzyl-1,4-diazepan-1-yl)(5-phenylthiophen-2-yl)methanone]	76%	1200	Efficacy (Emax) vs CXCL12 (human ACKR3): 32%
CC(C)(C)OC(=O)N1CCN(CCCNCc2csc(-c3ccccc3)n2)CC1 [Compound 47, tert-butyl 4-(3-(((2-phenylthiazol-4-yl)methyl)amino)propyl)piperazine-1-carboxylate]	100%	2400	Efficacy (Emax) vs CXCL12 (human ACKR3): 89%
CC(C)(C)OC(=O)N1CCCN(C(=O)c2csc(-c3ccccc3)n2)CC1 [Compound 45, tert-butyl 4-(2-phenylthiazole-4-carbonyl)-1,4-diazepane-1-carboxylate]	93%	5000	Efficacy (Emax) vs CXCL12 (human ACKR3): 29%
CCN(CCCNC(=O)c1ccc(-c2cccc(F)c2)s1)Cc1ccccc1 [Compound 31, N-(3-(benzyl(ethyl)amino)propyl)-5-(3-fluorophenyl)thiophene-2-carboxamide]	95±1%	–	–
O=C(NCc1cccc([N+](=O)[O-])c1)c1ccc(-c2ccccc2)s1 [Compound 42, N-(3-nitrobenzyl)-5-phenylthiophene-2-carboxamide]	17±3%	–	–
O=C(NCCCN1CCc2ccccc2C1)c1ccc(-c2ccccc2)s1 [Compound 35, N-(3-(3,4-dihydroisoquinolin-2(1H)-yl)propyl)-5-phenylthiophene-2-carboxamide]	27±9%	–	–
O=C(NCCCN(CCc1ccccc1)Cc1ccccc1)c1ccc(-c2ccccc2)s1 [Compound 29, N-(3-(benzyl(phenethyl)amino)propyl)-5-phenylthiophene-2-carboxamide]	2±8%	459	–
CN(CCCNC(=O)c1ccc(-c2ccccc2)s1)Cc1cccc(F)c1 [Compound 22, N-(3-((3-fluorobenzyl)(methyl)amino)propyl)-5-phenylthiophene-2-carboxamide]	66% and 66±14%	–	–
CC(C)(C)OC(=O)NCCCNC(=O)c1ccc(-c2ccccc2)s1 [Compound 33, tert-butyl (3-(5-phenylthiophene-2-carboxamido)propyl)carbamate]	0±4%	–	β-Arrestin recruitment EC50 (human ACKR3; [1]): no activity
CC(C)(C)OC(=O)N1CCN(CCCNC(=O)c2csc(-c3ccccc3)n2)CC1 [Compound 46, tert-butyl 4-(3-(2-phenylthiazole-4-carboxamido)propyl)piperazine-1-carboxylate]	86%	2700	Efficacy (Emax) vs CXCL12 (human ACKR3): 65%
CN1CCCC1CCNC(=O)c1csc(-c2ccccc2)n1 (stereo not drawn) [Compound 44, N-(2-(1-methylpyrrolidin-2-yl)ethyl)-2-phenylthiazole-4-carboxamide]	–	3000	–
O=C(NCCCNCc1ccccc1)c1ccc(-c2ccccc2)s1 [Compound 34, N-(3-(benzylamino)propyl)-5-phenylthiophene-2-carboxamide]	95±1%	–	–
CN(CCCNC(=O)c1ccc(-c2ccccc2)s1)Cc1ccc(Br)cc1 [Compound 19, N-(3-((4-bromobenzyl)(methyl)amino)propyl)-5-phenylthiophene-2-carboxamide]	89±3%	–	–
CC(C)(C)OC(=O)N1CCN(CCNC(=O)c2cc3ccccc3s2)CC1 [Compound 49, tert-butyl 4-(2-(benzo[b]thiophene-2-carboxamido)ethyl)piperazine-1-carboxylate]	70%	4550	Efficacy (Emax) vs CXCL12 (human ACKR3): 25%
O=C(NCCCN(Cc1ccccc1)C1CC1)c1ccc(-c2ccccc2)s1 [Compound 25, N-(3-(benzyl(cyclopropyl)amino)propyl)-5-phenylthiophene-2-carboxamide]	16±7%	–	–
